Laboratory results reported in patent US11274131B2, “IgM-mediated receptor clustering and cell modulation” (MAYO FOUNDATION FOR MEDICAL EDUCATION AND RESEARCH, priority 2007, dated 2022).

Legend:
[1] = test system: mouse DC; assay: Cap formation / FRET on mouse DC; type: cell-based
Description: (§1) DC of murine origin were stained with anti-Class II-FITC (MF/114.15.2), and either anti-CD80-PE (16.10A1)/CD86-PE (GL-1), or anti-CD11c-PE (N418). DC of human origin were stained with anti-Class II-FITC (LN3) and anti-CD80-PE (2D10.4)/CD86-PE (IT2.2). All incubations were carried out for 15 minutes at 37° C. The cells were subsequently stimulated with 10 μg/ml of control (sHIgM39) or B7-DC XAb, and were observed every 5 minutes using time lapse confocal imaging at 40.times magnification with a LSM510 Laser scanning confocal microscope having a 37° C. stage (Carl-Zeiss Inc, Oberkochen, Germany). Jurkat cells were pre stained with anti-human CD28-FITC (CD28.2) for 15 minutes, followed by addition of 10 μg/ml of MTAb control antibody sHIgM39, MTAb sHIgM22, or anti-K^b IgM (28-13-3), and were and analyzed in the same manner as the DC.
The flow cytometry approach for FRET was used as a way of quantifying molecular aggregation on the cell surface and was carried out as described previously (Block et al. (2001) J. Immunol. 167:821-826). Briefly, DC of murine origin were stained with anti-Class II APC (M5/114.15.2) and anti-CD80-PE (16.10A1)/CD86-PE(GL-1) for 15 minutes to visualize FRET between these molecules. Monitoring for FRET induced by interaction between TREM-2 and Class-II molecules was achieved by incubating the cells with the abovementioned anti-Class-II antibody and anti-TREM-2-PE (237920). DC of human origin were stained for 15 minutes with APC-anti class II (LN3) and anti-CD80-PE (2D10.4)/CD86-PE (IT2.2). In experiments involving blocking of B7-DC, both fluorophore labeled antibodies and purified anti-mouse B7-DC (TY-25) or purified anti-human B7-DC (MIH18) IgG monoclonal antibody was added at 10 μg/ml for 15 minutes. Jurkat cells were stained with anti-human Class I-PE (G46-2.6) or anti-human CD4 (RPA-T4) and anti-human CD28-APC (CD28.2) for 15 minutes. Cells were stimulated with control antibody or B7-DC XAb or purified anti-mouse class II IgM (25-9-3) (experiments involving DC) or sHIgM22 (experiments involving Jurkat cells) and aliquots from different groups were taken at different time points. After 15 minutes of incubation, the cells were washed and fixed in 2% paraformaldehyde prior to analysis by FACS using a FACSCALIBER™ (BD Biosciences, Franklin Lakes, N.J.). Data collected as log10 fluorescence were analyzed using CELLQUEST™ (BD Biosciences). The FRET signal was visualized in FL3 channel (650-670 nm LP).

[2] = test system: bone-marrow derived DCs; assay: FRET on DCs expressing Kb-peptide constructs; type: cell-based, mouse
Description: Kb, Kb-12p9A, Kb-22p3, and Kb-22p12p were placed in a VSV-G pseudotyped pBabe Puro retroviral vector, a vector based on the Maloney Murine Retrovirus. […] Retrovirus was produced by transient […] of 293T cells, and supernatant was concentrated 100:1 by ultracentrifugation on a 10% sucrose cushion. The retrovirus was titered with a colony forming unit assay of HT-1080 cells transduced with limiting dilutions of the supernatant concentrate, followed by selection with 2 ug/mL puromycin. To make DCs, bone marrow was harvested from Balb/c, C57BL6 mice or B7DC−/− mice on a C57BL6 background.
Bone marrow was placed in RPMI+10% Cosmic Calf Serum with 1 ng/mL IL-4 and 10 ng/mL GM-CSF, and plated at 10^6/mL in 24 well plates. On day 2 post-plating, media was aspirated; fresh media was added with 0.5 MOI retrovirus and 4 ug/mL polybrene. Using this system, the peptide constructs were expressed in cultured DCs (FIG. 13).
To directly compare the activity of the MTabs hIgM12 and hIgM22, a series of well-defined biological outputs of treatment of wild type DCs with hIgM12 was used. FRET was used as an output for formation of the multimolecular cap seen upon binding of hIgM12 to wild type DCs. The emission of phycoerythrin (PE) was used to excite APC, which normally emits in the FL4 channel but under FRET emits in the FL3 channel. Experiments were conducted to test FRET of CD40-PE to Class II APC, and CD80-PE to Class II APC (FIG. 14). Either wild type C57BL6 DCs or B7DC−/− DCs transduced with either B7DC or the Kb constructs were used. DCs were stained with the fluorochrome-labeled antibodies, and then treated for 15 minutes at 37° C. with 10 μg/mL of either hIgM12, hIgM22, or 28-13-3.

[3] = test system: mouse DC; assay: Calcium flux assay, mouse DC; type: cell-based
Description: Changes in the levels of intracellular Ca^2+ were assessed in Indol-loaded cells by flow cytometry as described previously (Takahashi et al. (2005) J. Exp. Med. 201:647-657). Briefly, 5×10^6 DC/ml were incubated with 5 μM Indo-1 (Calbiochem) at 37° C. for 30 minutes. The cells were washed twice in serum free media and resuspended at 10^6/ml in PBS containing 0.5% BSA. The samples were analyzed by flow cytometry using a UV laser. Violet (390 nm) and blue (500 nm) fluorescence emissions were recorded. Baseline was recorded for two minutes. Antibody was added to the cell suspension (10 μg/ml of control antibody or B7-DC XAb) and the measurements were recorded for 8 additional minutes. In blocking experiments, mouse or human DC were pre-incubated with 10 μg/ml of purified anti-mouse B7-DC antibody (TY-25) or purified anti-human B7-DC antibody (MIH18) for 15 minutes, followed by collection of data for calcium flux as described above. Ionomycin added at 1 μg/ml after 2 minutes served as a positive control. The blue to violet ratio was calculated using FlowJo software (Tristar, Ashland, Oreg.).

[4] = test system: human DC; assay: Cap formation / FRET on human DC; type: cell-based
Description: as §1
The flow cytometry approach for FRET was used as a way of quantifying molecular aggregation on the cell surface and was carried out as described previously (Block et al. (2001) J. Immunol. 167:821-826). Briefly, DC of murine origin were stained with anti-Class II APC (M5/114.15.2) and anti-CD80-PE (16.10A1)/CD86-PE(GL-1) for 15 minutes to visualize FRET between these molecules. […] Data collected as log10 fluorescence were analyzed using CELLQUEST™ (BD Biosciences). […]

In the case of “B7-DC XAb: human monoclonal IgM from a Waldenstrom's macroglobulinemia patient that binds and cross-links B7-DC on DC”, the “co-capping of CD80 and CD86 or CD11c with class II molecules” value ([1]; DC from CD80/CD86 double knock out and MHC class II knock out mice) is reported as “still occurred”, the “reorganization of tagged class II, CD80, CD86 into a capped cluster” value ([1]; mouse DC) is reported as “reorganized into a distinctly capped cluster” and the “FRET among class II, CD80 and CD86” value ([1]; mouse DC, within ten minutes) is reported as “strong FRET signal”. For the same substance, the “time to association of TREM-2 with class II molecules by FRET” value ([1]; mouse DC, increased by 15 minutes) was no more than 5 min, the FRET response ([2]; B7DC−/− DCs with restored B7DC expression) was “responded as well” and the FRET response ([2]; B7DC−/− Kb-12p9A DCs) was “responded”. For the same substance, the FRET response ([2]; B7DC−/− Kb-22p12p DCs) was “responded”, the “FRET response (CD40-PE or CD80-PE to Class II APC)” value ([2]; wild type DCs, 10 μg/mL, 15 minutes) was “responded” and the intracellular calcium signal [3] was “prolonged calcium signals”. The “reorganization of tagged class II, CD80, CD86 into a capped cluster” value [4] was “reorganized into a distinctly capped cluster” and the “FRET among class II, CD80 and CD86” value ([4]; within ten minutes) was “strong FRET signal”.
